In patent publication US12275731B2, “Azaindole inhibitors of wild-type and mutant forms of LRRK2” (DANA-FARBER CANCER INSTITUTE, INC., priority 2018, dated 2025):

Assays:
Assay in all cases: KinomeScan profiling
Format in all cases: binding
PDPK1 = target: T1, PDPK1 (Homo sapiens, UniProt O15530); settings: PDPK1, 1 μM; read-out: % control
T1 sequence (O15530 1-556): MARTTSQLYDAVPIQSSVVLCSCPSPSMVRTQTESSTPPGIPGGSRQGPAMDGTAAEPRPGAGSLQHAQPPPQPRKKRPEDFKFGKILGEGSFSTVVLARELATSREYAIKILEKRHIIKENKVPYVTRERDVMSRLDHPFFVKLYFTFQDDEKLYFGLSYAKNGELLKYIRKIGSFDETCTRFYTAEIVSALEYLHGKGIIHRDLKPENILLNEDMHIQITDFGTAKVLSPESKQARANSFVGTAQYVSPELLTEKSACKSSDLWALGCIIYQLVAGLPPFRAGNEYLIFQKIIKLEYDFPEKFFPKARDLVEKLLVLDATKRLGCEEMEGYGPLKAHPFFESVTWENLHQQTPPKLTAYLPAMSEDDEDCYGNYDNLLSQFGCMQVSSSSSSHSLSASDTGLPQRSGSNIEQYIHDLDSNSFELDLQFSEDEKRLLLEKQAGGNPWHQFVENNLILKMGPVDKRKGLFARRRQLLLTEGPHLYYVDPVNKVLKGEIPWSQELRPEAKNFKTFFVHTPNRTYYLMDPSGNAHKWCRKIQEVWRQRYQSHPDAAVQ
Summary of the method: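 Compounds were screened at 1 μM in DMSO across a 468-kinase KinomeScan panel. Binding was expressed as % control, scaled between a positive control (0%) and DMSO (100%) using luminescence signal. A value under 35% counted as active.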

YSK4 = target: T2, YSK4 (Homo sapiens, UniProt Q56UN5); settings: YSK4, 1 μM; read-out: % control
T2 sequence (Q56UN5 1-1328): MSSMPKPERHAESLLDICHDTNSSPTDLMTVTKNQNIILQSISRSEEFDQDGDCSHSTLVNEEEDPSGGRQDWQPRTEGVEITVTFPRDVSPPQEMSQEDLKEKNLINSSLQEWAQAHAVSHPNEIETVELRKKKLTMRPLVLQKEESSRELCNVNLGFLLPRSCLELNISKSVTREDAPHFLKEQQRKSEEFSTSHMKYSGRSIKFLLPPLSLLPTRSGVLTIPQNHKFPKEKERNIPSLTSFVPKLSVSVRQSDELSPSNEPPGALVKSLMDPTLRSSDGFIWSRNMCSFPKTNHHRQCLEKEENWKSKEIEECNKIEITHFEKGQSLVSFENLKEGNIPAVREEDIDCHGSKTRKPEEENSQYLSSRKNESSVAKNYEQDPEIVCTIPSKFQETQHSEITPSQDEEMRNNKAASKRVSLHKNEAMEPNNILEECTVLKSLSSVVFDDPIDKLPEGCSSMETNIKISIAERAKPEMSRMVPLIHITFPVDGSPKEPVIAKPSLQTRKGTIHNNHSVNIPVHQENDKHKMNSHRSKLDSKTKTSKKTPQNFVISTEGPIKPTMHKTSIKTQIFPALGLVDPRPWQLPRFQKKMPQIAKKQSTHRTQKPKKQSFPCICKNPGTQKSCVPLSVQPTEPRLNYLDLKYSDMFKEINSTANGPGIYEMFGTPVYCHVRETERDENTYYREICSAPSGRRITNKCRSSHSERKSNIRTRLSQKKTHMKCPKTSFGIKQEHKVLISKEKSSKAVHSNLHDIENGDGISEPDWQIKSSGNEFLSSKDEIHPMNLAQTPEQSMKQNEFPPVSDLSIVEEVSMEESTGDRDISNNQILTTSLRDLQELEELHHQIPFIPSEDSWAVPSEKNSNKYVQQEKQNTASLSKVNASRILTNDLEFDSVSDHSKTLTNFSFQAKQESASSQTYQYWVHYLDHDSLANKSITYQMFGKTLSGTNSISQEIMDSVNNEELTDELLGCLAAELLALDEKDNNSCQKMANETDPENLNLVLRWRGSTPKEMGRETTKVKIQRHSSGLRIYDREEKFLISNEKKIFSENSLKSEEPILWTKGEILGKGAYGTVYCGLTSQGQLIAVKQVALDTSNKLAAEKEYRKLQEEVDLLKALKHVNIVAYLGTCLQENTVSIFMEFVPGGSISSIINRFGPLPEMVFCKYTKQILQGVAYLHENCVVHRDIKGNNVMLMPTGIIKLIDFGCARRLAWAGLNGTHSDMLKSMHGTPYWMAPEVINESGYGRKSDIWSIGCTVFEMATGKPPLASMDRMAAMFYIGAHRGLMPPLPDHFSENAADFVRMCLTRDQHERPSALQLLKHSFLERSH
Summary of the method: (§1)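 Luminescence (RLU) was converted to percent of control, with DMSO set as 100% and a reference compound as 0%. Test compounds were run at 1 μM against 468 kinases. Kinases showing below 35% of control were scored as bound.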

TIE2 = TIE2 (Homo sapiens, UniProt Q02763); settings: TIE2, 1 μM; read-out: % control
Summary of the method: as §1

NEK4 = NEK4 (Homo sapiens, UniProt P51957); settings: NEK4, 1 μM; read-out: % control
Summary of the method: as §1

CAMKK2 = CAMKK2 (Homo sapiens, UniProt Q96RR4); settings: CAMKK2, 1 μM; read-out: % control
Summary of the method: as §1

PIKFYVE = target: T3, PIKFYVE (Homo sapiens, UniProt Q9Y2I7); settings: read-out: % control
T3 construct: purchased KinomeScan® (panel service)
Summary of the method: as §1

BRAF = target: T4, BRAF (Homo sapiens, UniProt P15056); settings: read-out: % control
T4 construct: purchased KinomeScan®
Summary of the method: as §1

SIK2 = target: T5, SIK2 (Homo sapiens, UniProt Q9H0K1); settings: SIK2, 1 μM; read-out: % control
T5 construct: purchased KinomeScan® (panel service)
Summary of the method: as §1

Sequence of CAMKK2 (Q96RR4 whole entry): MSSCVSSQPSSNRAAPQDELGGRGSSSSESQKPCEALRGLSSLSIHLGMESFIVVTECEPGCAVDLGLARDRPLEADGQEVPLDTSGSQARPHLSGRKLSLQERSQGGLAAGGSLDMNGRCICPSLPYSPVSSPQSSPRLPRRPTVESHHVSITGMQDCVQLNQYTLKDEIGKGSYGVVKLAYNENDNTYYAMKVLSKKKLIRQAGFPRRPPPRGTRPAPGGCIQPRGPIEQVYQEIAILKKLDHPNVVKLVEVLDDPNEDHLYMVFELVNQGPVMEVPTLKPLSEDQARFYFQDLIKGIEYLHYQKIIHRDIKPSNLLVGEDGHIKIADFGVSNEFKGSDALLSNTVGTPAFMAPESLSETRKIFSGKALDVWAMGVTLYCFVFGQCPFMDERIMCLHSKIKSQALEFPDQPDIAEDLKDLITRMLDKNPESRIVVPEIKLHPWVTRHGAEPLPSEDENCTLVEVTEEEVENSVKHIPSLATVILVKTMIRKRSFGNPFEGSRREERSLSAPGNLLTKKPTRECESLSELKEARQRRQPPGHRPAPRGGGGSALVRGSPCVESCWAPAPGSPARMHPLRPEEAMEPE
Sequence of NEK4 (P51957 whole entry): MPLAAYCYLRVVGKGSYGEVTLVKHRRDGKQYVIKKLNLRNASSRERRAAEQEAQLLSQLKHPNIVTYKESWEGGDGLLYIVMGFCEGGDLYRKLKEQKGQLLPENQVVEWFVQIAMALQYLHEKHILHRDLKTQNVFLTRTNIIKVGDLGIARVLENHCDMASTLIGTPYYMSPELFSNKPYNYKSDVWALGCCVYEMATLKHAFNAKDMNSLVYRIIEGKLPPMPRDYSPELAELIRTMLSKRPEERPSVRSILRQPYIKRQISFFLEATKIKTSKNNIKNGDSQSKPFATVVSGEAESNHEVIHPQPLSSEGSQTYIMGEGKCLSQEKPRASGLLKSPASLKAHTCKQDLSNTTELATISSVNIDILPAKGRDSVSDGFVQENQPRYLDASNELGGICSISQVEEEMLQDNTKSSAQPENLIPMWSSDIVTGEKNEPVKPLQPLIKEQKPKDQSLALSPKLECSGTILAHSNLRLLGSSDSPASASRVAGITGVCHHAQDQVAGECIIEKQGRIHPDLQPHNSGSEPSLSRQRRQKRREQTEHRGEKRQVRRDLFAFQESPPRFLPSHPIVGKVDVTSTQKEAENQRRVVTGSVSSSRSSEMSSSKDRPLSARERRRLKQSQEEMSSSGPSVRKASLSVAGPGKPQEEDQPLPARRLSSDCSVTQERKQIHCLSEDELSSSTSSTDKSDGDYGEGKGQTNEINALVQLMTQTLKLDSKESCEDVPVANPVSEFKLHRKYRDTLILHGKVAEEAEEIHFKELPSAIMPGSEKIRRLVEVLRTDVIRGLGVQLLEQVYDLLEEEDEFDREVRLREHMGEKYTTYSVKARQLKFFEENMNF
T3 sequence (Q9Y2I7 whole entry): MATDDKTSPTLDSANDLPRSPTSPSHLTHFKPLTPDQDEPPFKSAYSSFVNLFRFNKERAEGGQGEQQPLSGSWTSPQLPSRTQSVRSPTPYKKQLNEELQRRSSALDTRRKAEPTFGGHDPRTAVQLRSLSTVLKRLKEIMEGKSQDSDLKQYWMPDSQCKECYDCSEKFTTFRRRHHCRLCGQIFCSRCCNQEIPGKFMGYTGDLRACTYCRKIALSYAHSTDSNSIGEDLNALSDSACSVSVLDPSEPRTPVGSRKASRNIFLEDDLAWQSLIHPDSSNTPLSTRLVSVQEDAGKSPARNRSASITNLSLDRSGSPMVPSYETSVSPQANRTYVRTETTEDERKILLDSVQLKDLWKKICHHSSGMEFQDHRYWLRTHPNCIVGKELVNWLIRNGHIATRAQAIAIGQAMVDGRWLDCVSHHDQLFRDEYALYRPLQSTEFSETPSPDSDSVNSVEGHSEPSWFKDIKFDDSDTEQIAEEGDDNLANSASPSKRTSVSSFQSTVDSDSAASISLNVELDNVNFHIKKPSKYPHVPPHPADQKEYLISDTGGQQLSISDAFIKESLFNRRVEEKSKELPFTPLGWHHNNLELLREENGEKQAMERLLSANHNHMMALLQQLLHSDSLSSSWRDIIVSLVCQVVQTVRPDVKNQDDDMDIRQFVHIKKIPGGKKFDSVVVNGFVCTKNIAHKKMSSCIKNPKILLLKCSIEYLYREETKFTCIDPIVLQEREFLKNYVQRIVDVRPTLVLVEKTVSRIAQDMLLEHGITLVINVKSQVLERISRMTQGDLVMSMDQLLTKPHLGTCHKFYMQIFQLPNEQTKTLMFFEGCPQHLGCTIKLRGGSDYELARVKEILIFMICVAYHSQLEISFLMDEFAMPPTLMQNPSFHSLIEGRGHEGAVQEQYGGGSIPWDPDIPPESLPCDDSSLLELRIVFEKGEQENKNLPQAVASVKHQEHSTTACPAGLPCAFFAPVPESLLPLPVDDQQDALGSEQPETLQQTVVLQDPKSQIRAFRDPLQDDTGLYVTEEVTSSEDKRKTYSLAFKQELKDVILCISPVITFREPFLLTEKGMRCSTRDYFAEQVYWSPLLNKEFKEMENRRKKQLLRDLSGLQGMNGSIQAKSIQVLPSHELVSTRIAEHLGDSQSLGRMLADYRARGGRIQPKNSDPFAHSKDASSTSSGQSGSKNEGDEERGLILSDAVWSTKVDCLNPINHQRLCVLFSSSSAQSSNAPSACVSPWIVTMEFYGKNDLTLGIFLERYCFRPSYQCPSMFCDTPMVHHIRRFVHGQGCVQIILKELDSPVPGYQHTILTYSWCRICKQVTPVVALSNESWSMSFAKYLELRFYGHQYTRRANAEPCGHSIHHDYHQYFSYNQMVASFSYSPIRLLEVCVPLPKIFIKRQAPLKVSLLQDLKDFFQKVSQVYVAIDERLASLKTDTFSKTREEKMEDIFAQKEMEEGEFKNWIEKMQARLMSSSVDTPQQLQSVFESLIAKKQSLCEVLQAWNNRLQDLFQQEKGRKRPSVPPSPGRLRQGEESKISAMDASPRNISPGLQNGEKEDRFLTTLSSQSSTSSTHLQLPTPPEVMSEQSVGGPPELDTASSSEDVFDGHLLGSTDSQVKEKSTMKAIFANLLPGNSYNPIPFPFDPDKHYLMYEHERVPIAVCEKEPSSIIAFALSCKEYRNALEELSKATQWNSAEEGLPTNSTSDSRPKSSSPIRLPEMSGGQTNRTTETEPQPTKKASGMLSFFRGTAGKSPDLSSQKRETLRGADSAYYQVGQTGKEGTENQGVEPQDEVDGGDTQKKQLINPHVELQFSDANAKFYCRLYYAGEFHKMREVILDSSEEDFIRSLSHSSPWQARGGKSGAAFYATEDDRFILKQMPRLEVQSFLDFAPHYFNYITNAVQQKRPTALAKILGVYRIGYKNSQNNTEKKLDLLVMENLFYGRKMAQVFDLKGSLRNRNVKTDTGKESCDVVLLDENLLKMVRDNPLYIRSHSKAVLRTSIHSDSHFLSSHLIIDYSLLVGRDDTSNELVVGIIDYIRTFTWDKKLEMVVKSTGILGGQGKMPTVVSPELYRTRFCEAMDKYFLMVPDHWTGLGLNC
T4 sequence (P15056 whole entry): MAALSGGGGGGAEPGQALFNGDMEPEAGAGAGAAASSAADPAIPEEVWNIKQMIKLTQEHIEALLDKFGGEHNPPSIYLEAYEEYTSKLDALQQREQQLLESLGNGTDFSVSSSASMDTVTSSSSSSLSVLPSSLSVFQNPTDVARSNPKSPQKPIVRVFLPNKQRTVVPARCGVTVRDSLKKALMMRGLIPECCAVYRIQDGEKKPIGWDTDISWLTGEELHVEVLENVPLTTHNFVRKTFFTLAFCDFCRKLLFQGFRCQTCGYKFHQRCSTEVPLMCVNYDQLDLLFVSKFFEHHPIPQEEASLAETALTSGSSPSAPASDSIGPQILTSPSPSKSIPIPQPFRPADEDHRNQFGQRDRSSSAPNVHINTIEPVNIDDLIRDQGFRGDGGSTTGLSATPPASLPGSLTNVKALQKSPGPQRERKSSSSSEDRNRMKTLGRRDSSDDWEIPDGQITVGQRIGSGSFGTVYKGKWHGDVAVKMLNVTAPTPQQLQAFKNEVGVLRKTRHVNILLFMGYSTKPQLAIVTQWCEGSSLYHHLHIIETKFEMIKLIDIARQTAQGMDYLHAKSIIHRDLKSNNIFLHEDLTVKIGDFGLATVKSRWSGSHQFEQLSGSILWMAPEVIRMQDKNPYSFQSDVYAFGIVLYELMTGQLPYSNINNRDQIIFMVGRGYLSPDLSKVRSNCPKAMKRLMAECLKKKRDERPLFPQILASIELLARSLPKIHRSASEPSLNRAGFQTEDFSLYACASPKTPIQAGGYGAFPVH

Molecule CNc1c(-c2cnn([C@H]3CCN(C(C)=O)C[C@@H]3F)c2)cnc2[nH]cc(Cl)c12 [Compound 77, 1-((3S,4S)-4-(4-(3-chloro-4-(methylamino)-1H-pyrrolo[2,3-b]pyridin-5-yl)-1H-pyrazol-1-yl)-3-fluoropiperidin-1-yl)ethan-1-one] has a remaining binding at 1 µM (PDPK1) of 94%, a remaining binding at 1 µM (YSK4) of 2.6% and a remaining binding at 1 µM (TIE2) of 80%. For the same molecule, the remaining binding at 1 µM (NEK4) was 82%, the remaining binding at 1 µM (CAMKK2) was 79% and the remaining binding at 1 µM (PIKFYVE) was 53%. The remaining binding at 1 µM (BRAF) was 91% and the remaining binding at 1 µM (SIK2) was 100%.
In the case of O=C(c1ccc(-c2cnc3[nH]cc(Cl)c3c2NC2CCCC2)cc1)N1CCC(N2CCOCC2)CC1 [Compound 101, (4-(3-chloro-4-(cyclopentylamino)-1H-pyrrolo[2,3-b]pyridin-5-yl)phenyl)(4-morpholinopiperidin-1-yl)methanone], the remaining binding at 1 µM (PDPK1) is reported as 94%, the remaining binding at 1 µM (YSK4) is reported as 63% and the remaining binding at 1 µM (TIE2) is reported as 97%. For the same molecule, the remaining binding at 1 µM (NEK4) was 100%, the remaining binding at 1 µM (CAMKK2) was 88% and the remaining binding at 1 µM (PIKFYVE) was 98%. It also gave a remaining binding at 1 µM (BRAF) of 84% and a remaining binding at 1 µM (SIK2) of 84%.
Work on CNc1c(-c2ccc(C(=O)N3CCC(N4CCOCC4)CC3)cc2)cnc2[nH]cc(Cl)c12 [Compound 96, (4-(3-chloro-4-(methylamino)-1H-pyrrolo[2,3-b]pyridin-5-yl)phenyl)(4-morpholinopiperidin-1-yl)methanone] yielded a remaining binding at 1 µM (PDPK1) of 68%, a remaining binding at 1 µM (YSK4) of 2.2% and a remaining binding at 1 µM (TIE2) of 81%. It also gave a remaining binding at 1 µM (NEK4) of 65%, a remaining binding at 1 µM (CAMKK2) of 82% and a remaining binding at 1 µM (PIKFYVE) of 66%. It also gave a remaining binding at 1 µM (BRAF) of 90% and a remaining binding at 1 µM (SIK2) of 85%.
